Assay in all cases: Ray2010 Assay 74
Experiment [1] deals with T1, Gamma-aminobutyric acid receptor subunit alpha-1/Adenosine receptor A1 (Homo sapiens, UniProt P14867+P30542).
T1 sequence (P30542 whole entry): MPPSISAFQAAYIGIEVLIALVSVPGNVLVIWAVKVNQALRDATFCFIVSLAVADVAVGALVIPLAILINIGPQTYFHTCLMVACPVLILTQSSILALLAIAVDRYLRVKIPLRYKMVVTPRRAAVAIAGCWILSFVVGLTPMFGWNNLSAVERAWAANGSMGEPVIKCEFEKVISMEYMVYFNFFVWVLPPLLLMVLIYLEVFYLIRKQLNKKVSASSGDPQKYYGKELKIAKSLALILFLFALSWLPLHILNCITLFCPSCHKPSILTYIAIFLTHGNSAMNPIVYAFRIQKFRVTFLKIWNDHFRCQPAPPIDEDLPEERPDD
T1 sequence (P14867 whole entry): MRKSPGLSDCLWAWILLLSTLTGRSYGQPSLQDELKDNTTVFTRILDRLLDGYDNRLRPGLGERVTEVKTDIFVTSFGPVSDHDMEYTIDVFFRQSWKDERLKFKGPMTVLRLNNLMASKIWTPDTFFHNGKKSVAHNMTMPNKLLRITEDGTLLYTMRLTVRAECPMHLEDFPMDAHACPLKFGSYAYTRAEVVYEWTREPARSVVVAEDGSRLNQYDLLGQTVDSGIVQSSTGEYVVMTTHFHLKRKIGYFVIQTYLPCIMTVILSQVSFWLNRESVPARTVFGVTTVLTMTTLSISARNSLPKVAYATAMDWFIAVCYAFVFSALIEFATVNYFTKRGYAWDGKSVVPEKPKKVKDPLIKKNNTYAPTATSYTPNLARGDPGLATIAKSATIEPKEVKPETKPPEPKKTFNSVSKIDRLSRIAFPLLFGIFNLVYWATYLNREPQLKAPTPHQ
The source says:
(§1) Table S2 shows raw Ki data for the current study combined with data collected from the literature for the ten additional compounds.

The target of the next experiment is Cannabinoid receptor 1 (Homo sapiens, UniProt P21554).
Cannabinoid receptor 1, sequence (P21554 whole entry): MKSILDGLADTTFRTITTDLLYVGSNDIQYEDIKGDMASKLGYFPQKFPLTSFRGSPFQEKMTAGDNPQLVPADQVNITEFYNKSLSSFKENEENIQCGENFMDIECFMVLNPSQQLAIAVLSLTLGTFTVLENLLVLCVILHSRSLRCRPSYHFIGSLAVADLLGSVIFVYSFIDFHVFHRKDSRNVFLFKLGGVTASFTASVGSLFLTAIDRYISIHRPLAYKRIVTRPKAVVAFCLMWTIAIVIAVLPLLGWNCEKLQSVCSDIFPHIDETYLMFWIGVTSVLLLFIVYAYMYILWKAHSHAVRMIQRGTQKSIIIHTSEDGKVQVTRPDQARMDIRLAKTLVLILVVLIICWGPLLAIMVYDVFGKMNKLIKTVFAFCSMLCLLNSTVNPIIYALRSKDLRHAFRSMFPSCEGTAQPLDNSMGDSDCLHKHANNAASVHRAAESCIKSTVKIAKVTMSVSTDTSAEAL
Description: as §1

Experiment [2] has as its target 5-hydroxytryptamine receptor 7 (Homo sapiens, UniProt P34969).
Description: as §1

The target of experiment [3] is Beta-2 adrenergic receptor (Homo sapiens, UniProt P07550).
Description: as §1

Experiment [4] concerns the target Muscarinic acetylcholine receptor M3 (Homo sapiens, UniProt P20309).
Description: as §1

For experiment [5], the target named is T2, 5-hydroxytryptamine receptor 2C (Homo sapiens, UniProt P28335).
T2 sequence (P28335 whole entry): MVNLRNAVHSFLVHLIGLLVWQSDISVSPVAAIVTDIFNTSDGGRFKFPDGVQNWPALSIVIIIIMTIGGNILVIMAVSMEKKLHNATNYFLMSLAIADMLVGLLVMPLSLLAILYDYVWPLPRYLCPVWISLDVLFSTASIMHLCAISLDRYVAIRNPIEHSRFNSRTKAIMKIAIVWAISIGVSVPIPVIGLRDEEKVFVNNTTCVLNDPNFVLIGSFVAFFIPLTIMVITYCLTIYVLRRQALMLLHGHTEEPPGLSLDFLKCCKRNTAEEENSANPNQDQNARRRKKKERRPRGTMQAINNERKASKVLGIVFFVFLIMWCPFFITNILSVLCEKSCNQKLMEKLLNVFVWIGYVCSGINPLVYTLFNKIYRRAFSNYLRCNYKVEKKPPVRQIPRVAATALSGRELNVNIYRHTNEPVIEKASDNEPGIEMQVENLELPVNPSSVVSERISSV
Description: as §1

The target in experiment [6] is T3, Muscarinic acetylcholine receptor M4 (Homo sapiens, UniProt P08173).
T3 sequence (P08173 whole entry): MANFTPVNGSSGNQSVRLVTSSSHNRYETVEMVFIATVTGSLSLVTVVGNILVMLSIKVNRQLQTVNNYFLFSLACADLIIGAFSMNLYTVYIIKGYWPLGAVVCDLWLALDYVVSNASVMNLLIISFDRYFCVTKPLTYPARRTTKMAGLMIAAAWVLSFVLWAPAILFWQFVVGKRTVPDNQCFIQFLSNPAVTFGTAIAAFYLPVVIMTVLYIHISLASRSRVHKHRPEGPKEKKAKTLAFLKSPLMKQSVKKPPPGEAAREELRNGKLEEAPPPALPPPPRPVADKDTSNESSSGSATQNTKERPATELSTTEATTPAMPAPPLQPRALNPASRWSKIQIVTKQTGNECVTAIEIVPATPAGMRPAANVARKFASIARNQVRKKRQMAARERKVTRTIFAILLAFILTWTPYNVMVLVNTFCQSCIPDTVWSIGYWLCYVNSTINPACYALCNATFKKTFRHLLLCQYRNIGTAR
Description: as §1

For experiment [7], the target named is Sigma intracellular receptor 2 (Homo sapiens, UniProt Q5BJF2).
Sigma intracellular receptor 2, sequence (Q5BJF2 whole entry): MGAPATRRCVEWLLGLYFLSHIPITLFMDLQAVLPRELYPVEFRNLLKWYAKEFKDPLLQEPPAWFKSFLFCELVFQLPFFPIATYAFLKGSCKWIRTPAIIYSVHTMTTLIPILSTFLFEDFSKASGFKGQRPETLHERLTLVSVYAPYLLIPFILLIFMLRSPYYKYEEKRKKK
Description: as §1

Experiment [8] deals with Neuronal acetylcholine receptor subunit alpha-2/beta-2 (Homo sapiens, UniProt P17787+Q15822).
Neuronal acetylcholine receptor subunit alpha-2/beta-2, sequence (P17787 whole entry): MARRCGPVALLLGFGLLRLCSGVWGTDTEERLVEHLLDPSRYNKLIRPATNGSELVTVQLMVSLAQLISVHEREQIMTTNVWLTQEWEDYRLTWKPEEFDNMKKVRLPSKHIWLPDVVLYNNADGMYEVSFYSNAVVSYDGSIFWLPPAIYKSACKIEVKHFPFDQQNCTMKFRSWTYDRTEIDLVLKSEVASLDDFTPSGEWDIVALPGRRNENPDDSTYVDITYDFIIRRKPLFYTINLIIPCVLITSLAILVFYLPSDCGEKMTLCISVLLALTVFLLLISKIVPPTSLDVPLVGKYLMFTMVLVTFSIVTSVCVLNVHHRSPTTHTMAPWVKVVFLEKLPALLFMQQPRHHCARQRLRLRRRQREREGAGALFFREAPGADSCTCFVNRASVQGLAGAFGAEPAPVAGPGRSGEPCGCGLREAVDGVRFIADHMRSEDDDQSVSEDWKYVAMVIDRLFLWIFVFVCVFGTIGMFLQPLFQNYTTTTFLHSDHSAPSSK
Neuronal acetylcholine receptor subunit alpha-2/beta-2, sequence (Q15822 whole entry): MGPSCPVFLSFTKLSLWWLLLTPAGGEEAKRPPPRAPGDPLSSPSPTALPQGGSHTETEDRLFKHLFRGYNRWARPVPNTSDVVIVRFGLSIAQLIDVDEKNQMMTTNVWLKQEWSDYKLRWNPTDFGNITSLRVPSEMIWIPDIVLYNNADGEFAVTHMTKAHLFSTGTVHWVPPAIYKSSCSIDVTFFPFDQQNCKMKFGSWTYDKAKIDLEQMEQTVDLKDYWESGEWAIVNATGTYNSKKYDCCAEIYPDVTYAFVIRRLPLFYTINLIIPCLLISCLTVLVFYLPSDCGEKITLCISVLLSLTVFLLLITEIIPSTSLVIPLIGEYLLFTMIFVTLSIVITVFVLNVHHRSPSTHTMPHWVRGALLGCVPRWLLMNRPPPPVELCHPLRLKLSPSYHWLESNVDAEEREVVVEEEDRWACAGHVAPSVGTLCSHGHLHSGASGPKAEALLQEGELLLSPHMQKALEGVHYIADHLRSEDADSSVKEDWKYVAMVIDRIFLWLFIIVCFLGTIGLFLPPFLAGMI
Description: as §1

Experiment [9] has as its target Neuronal acetylcholine receptor subunit alpha-4/beta-2 (Mus musculus, UniProt O70174+Q9ERK7).
Description: as §1

Experiment [10] addresses Neuronal acetylcholine receptor subunit alpha-3/beta-2 (Homo sapiens, UniProt P17787+P32297).
Description: as §1

Muscarinic acetylcholine receptor M3, sequence (P20309 whole entry): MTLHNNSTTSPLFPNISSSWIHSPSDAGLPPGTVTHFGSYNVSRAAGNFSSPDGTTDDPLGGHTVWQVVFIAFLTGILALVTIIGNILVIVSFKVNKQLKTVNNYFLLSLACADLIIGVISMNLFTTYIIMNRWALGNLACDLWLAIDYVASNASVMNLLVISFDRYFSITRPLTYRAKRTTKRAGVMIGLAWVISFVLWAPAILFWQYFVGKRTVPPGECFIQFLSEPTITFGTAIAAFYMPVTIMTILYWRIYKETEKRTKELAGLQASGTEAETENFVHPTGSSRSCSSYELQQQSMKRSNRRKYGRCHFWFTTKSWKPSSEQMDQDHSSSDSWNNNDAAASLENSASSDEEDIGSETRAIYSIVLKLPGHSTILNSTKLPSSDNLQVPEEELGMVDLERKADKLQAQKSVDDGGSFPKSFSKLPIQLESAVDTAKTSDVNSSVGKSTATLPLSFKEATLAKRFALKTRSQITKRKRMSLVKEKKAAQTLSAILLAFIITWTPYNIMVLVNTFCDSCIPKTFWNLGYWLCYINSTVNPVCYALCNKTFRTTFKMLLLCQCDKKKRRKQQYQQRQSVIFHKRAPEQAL
5-hydroxytryptamine receptor 7, sequence (P34969 whole entry): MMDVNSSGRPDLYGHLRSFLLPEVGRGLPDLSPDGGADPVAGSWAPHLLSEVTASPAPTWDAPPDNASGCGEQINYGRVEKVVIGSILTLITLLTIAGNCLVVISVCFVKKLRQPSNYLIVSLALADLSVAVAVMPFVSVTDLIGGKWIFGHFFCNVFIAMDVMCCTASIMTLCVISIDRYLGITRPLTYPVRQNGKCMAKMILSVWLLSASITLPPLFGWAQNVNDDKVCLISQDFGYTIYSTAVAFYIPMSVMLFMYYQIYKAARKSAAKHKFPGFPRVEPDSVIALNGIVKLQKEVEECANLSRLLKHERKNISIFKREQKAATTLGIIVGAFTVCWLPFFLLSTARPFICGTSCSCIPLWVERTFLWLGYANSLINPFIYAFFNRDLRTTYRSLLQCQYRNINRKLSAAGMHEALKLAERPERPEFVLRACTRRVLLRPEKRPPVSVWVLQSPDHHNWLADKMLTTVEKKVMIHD
Neuronal acetylcholine receptor subunit alpha-3/beta-2, sequence (P17787 whole entry): as the sequence (P17787 whole entry) above
Neuronal acetylcholine receptor subunit alpha-3/beta-2, sequence (P32297 whole entry): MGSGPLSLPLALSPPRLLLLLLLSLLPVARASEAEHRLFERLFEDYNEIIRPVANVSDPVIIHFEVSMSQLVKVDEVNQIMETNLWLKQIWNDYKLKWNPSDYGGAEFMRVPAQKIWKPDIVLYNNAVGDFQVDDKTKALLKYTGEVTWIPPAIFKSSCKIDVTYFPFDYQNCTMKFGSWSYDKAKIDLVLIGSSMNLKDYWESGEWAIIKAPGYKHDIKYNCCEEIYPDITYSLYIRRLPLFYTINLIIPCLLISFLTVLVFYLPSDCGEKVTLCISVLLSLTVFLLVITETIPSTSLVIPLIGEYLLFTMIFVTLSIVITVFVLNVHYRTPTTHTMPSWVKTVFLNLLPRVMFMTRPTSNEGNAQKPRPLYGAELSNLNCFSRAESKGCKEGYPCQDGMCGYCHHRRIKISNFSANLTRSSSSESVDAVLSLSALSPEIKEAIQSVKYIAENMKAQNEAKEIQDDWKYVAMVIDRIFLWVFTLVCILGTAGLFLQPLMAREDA
Neuronal acetylcholine receptor subunit alpha-4/beta-2, sequence (O70174 whole entry): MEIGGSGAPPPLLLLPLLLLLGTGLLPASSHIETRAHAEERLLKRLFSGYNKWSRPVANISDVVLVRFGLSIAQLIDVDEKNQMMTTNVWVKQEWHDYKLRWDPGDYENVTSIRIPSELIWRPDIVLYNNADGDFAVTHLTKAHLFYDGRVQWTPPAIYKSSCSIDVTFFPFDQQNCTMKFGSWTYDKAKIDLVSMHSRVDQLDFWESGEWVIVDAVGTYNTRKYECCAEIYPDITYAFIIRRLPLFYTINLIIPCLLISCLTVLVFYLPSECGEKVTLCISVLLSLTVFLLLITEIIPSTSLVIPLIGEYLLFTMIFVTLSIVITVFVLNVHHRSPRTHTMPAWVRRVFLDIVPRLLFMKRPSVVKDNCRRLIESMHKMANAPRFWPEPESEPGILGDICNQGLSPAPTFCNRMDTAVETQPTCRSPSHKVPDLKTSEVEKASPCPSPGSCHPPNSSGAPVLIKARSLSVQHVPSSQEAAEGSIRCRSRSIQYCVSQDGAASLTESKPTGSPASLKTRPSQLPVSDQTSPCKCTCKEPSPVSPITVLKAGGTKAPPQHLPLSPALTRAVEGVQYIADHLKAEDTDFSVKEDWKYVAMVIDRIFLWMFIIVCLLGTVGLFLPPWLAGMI
Neuronal acetylcholine receptor subunit alpha-4/beta-2, sequence (Q9ERK7 whole entry): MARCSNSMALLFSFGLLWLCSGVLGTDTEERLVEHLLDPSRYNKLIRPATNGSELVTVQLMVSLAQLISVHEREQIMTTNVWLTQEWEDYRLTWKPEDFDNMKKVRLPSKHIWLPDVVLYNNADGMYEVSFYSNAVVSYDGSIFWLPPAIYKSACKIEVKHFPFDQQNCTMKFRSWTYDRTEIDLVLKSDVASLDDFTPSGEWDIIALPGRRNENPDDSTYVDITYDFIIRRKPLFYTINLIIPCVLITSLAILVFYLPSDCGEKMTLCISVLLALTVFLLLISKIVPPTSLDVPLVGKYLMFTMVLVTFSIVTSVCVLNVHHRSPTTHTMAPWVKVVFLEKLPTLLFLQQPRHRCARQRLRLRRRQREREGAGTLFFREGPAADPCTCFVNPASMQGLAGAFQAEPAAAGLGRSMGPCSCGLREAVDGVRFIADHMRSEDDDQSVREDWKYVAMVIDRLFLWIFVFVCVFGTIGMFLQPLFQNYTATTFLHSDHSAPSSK

One may read the Ki as the dissociation constant of the complex between target and ligand, obtained from inhibition or displacement. Higher therefore signals a looser hold on the target. Turning to `CC(N)Cc1ccc2c(c1)OCO2` (configuration not stated), the Ki is over 10 µM in [1], over 10 µM at Cannabinoid receptor 1, 3550 nM in experiment [2] and over 10 µM in experiment [3].

For `CCOc1cc(OC)c(CC(C)N)cc1OC` (configuration not stated), the Ki (in experiment [4]; in experiment [5]; in experiment [6]; in [1]; in experiment [7]; at Cannabinoid receptor 1) was over 10 µM throughout. The Ki in experiment [2] was 7160 nM; in [3] it was over 10 µM.

In the case of `COc1cc(CCN)c(OC)cc1Br`, the Ki is 0.822 µM in experiment [4]; over 10 µM in experiment [6]; over 10 µM in experiment [1]; over 10 µM in [7]; over 10 µM at Cannabinoid receptor 1; 209 nM in experiment [2].

As to `CCSc1cc(OC)c(CC(N)CC)cc1OC` (configuration not stated) [1-(4-Ethylsulfanyl-2,5-dimethoxy-benzyl)-propylamine], the Ki in experiment [4] was over 10 µM; in [6], over 10 µM; in experiment [1] it was over 10 µM; in experiment [7], over 10 µM; at Cannabinoid receptor 1, over 10 µM; in experiment [2], 3830 nM.

For `CN(C)CCc1c[nH]c2ccccc12` [2-(1H-indol-3-yl)-N,N-dimethylethanamine], the Ki in [4] is over 10 µM; in [6], over 10 µM; in experiment [1], over 10 µM; in experiment [7], over 10 µM; at Cannabinoid receptor 1, over 10 µM; in experiment [2] it was 87.5 nM. The Ki in experiment [3] is over 10 µM.

For `CCc1cc(OC)c(CCN)cc1OC` [2-(2,5-dimethoxy-4-ethylphenyl)ethylamine], the Ki in [4] is 2.56 µM; in [6], over 10 µM; in experiment [1] it was over 10 µM; in [7], over 10 µM; on Cannabinoid receptor 1 it was over 10 µM; in experiment [2], 426 nM.

In the case of `COc1cc(CC(C)N)c(OC)cc1Br` (stereo not drawn) [2-(4-Bromo-2,5-dimethoxy-phenyl)-1-methyl-ethylamine((-)-DOB)], the Ki in [4] was 1.15 µM; in [6], over 10 µM; in experiment [1] it was over 10 µM; in experiment [7] it was over 10 µM; on Cannabinoid receptor 1, over 10 µM; in experiment [2], 506 nM.

Take `CCSc1cc(OC)c(CC(C)N)cc1OC` (configuration not stated) [2-(4-Ethylsulfanyl-2,5-dimethoxy-phenyl)-1-methyl-ethylamine]: the Ki in experiment [4] was 1.91 µM; in experiment [6], over 10 µM; in [1] it was over 10 µM; in experiment [7], over 10 µM; at Cannabinoid receptor 1, over 10 µM; in [2], 1320 nM.

Consider `CCSc1cc(OC)c(CCN)cc1OC` [2C-T-2], for which the Ki was 0.692 µM in experiment [4]; over 10 µM in [6]; over 10 µM in experiment [1]; over 10 µM in [7]; over 10 µM at Cannabinoid receptor 1.

On to `COC(=O)[C@@H]1C[C@H](OC(C)=O)C(=O)[C@H]2[C@@]1(C)CC[C@H]1C(=O)O[C@H](c3ccoc3)C[C@]21C` [2S,4aR,6a(R,7R,9S,10aS,10bR)-9-(acetyloxy)-2-(furan-3-yl)dodecahydro-6a,10b-dimethyl-4,10-dioxo-2H-naphtho[2,1-c]pyran-7-carboxylic acid methyl ester], for which the Ki is over 10 µM in experiment [4]; over 10 µM in experiment [5]; over 10 µM in experiment [6]; over 10000 nM in experiment [2]; over 10 µM in experiment [3].

For `COc1cc(CCN)cc(OC)c1OC` [3,4,5-trimethoxyphenylethylamine], the Ki (in [4]; in experiment [5]; in [6]; in experiment [1]; in experiment [7]; at Cannabinoid receptor 1) was over 10 µM in each case. Also, the Ki in [2] is over 10000 nM; in [3] it was over 10 µM.

`COc1ccc2[nH]cc(CCN(C)C)c2c1` [3-(2-DIMETHYLAMINOETHYL)-5-METHOXYINDOLE]: the Ki (in experiment [4]; in [6]; in [1]; in experiment [7]; at Cannabinoid receptor 1; in experiment [3]) was over 10 µM throughout.

For the compound `CN(C)CCc1c[nH]c2cccc(O)c12` [4-hydroxy-N,N-dimethyltryptamine], the inhibition constant Ki (in experiment [4]; in [6]; in [1]; in experiment [7]; on Cannabinoid receptor 1; in experiment [3]) was over 10 µM throughout.

Consider `COc1ccc2[nH]cc(CCN(C(C)C)C(C)C)c2c1` [5-meo-dipt], for which the Ki in experiment [4] was over 10 µM; in [5] it was over 10 µM; in [6], over 10 µM; in experiment [1] it was over 10 µM; in experiment [7] it was 3 µM; at Cannabinoid receptor 1 it was over 10 µM. Also, the inhibition constant (Ki) in experiment [2] was 1230 nM; in [3] it was over 10 µM.

With `COc1ccc2[nH]cc(CCN(C)C(C)C)c2c1` [5-meo-mipt], the Ki in experiment [4] was over 10 µM; in experiment [6] it was over 10 µM; in [1], over 10 µM; in [7], 0.918 µM; in [2], 19.8 nM; in experiment [3], over 10 µM.

As for `CN(C)CCc1c[nH]c2cc(F)ccc12` [6-f-dmt], the Ki was over 10 µM in experiment [4]; over 10 µM in experiment [6]; over 10 µM in [1]; 7.13 µM in experiment [7]; over 10 µM at Cannabinoid receptor 1; 40.8 nM in experiment [2]. In experiment [3], this compound displayed a Ki of over 10 µM.

In the case of `COc1cc(OC)c(OC)cc1CC(C)N` (stereo not drawn) [(+/-)1-Methyl-2-(2,4,5-trimethoxy-phenyl)-ethylamine], the Ki in [2] was over 10000 nM; in experiment [3] it was over 10 µM.

In the case of `CC(C)N(CCc1c[nH]c2ccccc12)C(C)C` [dipt], the Ki is over 10 µM in experiment [4]; over 10 µM in experiment [5]; over 10 µM in experiment [6]; over 10 µM in experiment [1]; 2.7 µM in experiment [7]; over 10 µM on Cannabinoid receptor 1. For the same compound, the Ki in experiment [2] was 3420 nM; in [3], over 10 µM.

For `CCCN(CCC)CCc1c[nH]c2ccccc12` [dpt], the inhibition constant Ki in experiment [4] was over 10 µM; in experiment [6] it was over 10 µM; in experiment [1], over 10 µM; in experiment [7], 2.92 µM; at Cannabinoid receptor 1, over 10 µM; in [2] it was 284 nM. In addition, the Ki in [3] was over 10 µM.

Take “CAS_82830-44-2::(2R)-1-(4-iodo-2,5-dimethoxyphenyl)propan-2-amine::DOI,(-)::US20250270173, Compound DOI”: the Ki in [4] is 1.43 µM; in experiment [5], 0.0458 µM; in experiment [8] it was over 10 µM; in experiment [6], 0.578 µM; in experiment [7] it was 9.17 µM; on Cannabinoid receptor 1, over 10 µM. In addition, the Ki in [9] is over 10 µM; in experiment [2], 5770 nM; in experiment [3], 0.139 µM; in experiment [10] it was over 10 µM.

These data come from BindingDB's records for PubMed 20126400 (University of Oklahoma, 2010).
